Reference: patent US11505521B2 (Biothea Pharma, Inc., priority 2018, dated 2022)
Like-named read-outs stand apart in the source and are kept apart here.

Legend:
[1] = sublingual tablet of Example 3, 10 mg epinephrine base, receptor pH 7.4, 37° C.
Procedure: The in-vitro permeability of the pharmaceutical compositions of Example 3 were tested. The tests were conducted using drug transdermal diffusion test instruments (Brand Huanghai, Model No. RJY-6B), Sartorius balances (Model SQP), an INESA pH meter (Model PHS-3E), a Thermo HPLC (UltiMate 3000 System, UV Wavelength: 205 nm), and Phenomenex Luna columns (5 μm C18 (2), 4.6×250 mm). The column temperature was 40° C. and the autosampler temperature was room temperature. The injection volume was 5 μL.
(§1) Mobile Phase A was prepared by weighing 4.0 g tetramethylammonium bisulfate (MERYER, Batch No. 77957139) and 1.1 sodium 1-heptasulfonate (Admas-beta, Batch No. P1343755), and transferring the materials to a flask. 2 mL of 0.1 mol/L EDTA solution (Brand: Sinopharm Chemical Reagent Co., Ltd., Batch No. 20150410) was added to the flask and the volume was adjusted to 950 mL using water. The solution was mixed and adjusted to a pH of 3.5 with 0.1N sodium hydroxide solution (Brand: Enox, Batch No. 20161201). Mobile Phase B was prepared using methanol. The isocratic elution was used in a proportion of A/B of 85/15. The run time was 10 minutes.
The in vitro diffusion of epinephrine salts were evaluated using Franz cells with an OD of 20 mm and reservoir volume of 7 mL. Dialysis membranes (Spectra/Por® dialysis membranes with 1,000 Da MWCO) were used to simulate sublingual mucous membrane in the vitro permeability tests. The assay content of the active components was detected in receiving pools. A receptor chamber with a magnetic stirrer was filled with phosphate buffer solution (pH 7.4) as the diffusion medium. The water bath was set at 37° C., and water was circulated in the Franz cells.
Each tablet was placed at the center of the donor chamber on the membrane at T0, and 2 mL of the artificial saliva (Brand: Biomart, Brand No. GL0305) was added to facilitate tablet disintegration and dissolution. Aliquots of 1 mL were withdrawn from the receptor chamber at 10, 30, 60, 90, and 120 min. The volumes withdrawn were replenished with fresh medium. Samples were transferred to HPLC vials for HPLC analysis.

[2] = Procedure: The stability of the pharmaceutical compositions of Example 3 were tested. The stability studies were conducted on packaged epinephrine salts at 25° C./RH 60% and 40° C./RH 75% conditions, as well as samples without packaging and exposed to light (4500 Lux) for one month. The appearance, assay content, and related substances were examined at 5, 7, 14 and 30 days.
(§2) The assay content was tested using Sartorius balances (Model SQP), an INESA pH meter (Model PHS-3E), a Thermo HPLC (UltiMate 3000 System, UV Wavelength: 205 nm), and Phenomenex Luna columns (5 μm C18 (2), 4.6×250 mm). The column temperature was 40° C., and the autosampler temperature was room temperature. The injection volume was 5 μL.
as §1
The assay content was analyzed by dissolving 20 mg of each sample to be examined in 50 mL of Mobile Phase A (0.4 mg/mL) as assay test solution. The sample was used and tested right after it was ready and was protected from light.
as §2, with “purity” for “assay content”, “PhenomenexSynergi” for “Phenomenex Luna”, “(4” for “(5”, “Polar-RP 80 A 250×4.6” for “C18 (2), 4.6×250”, “30°” for “40°”
Mobile Phase A was prepared by weighing 1.136 g of potassium dihydrogen orthophosphate (Brand: CNW, Batch No. A1040040) and 1.74 g of dipotassium hydrogen orthophosphate (Brand: Ourchem, Batch No. 20160219) and transferring into 1000 mL of water. The pH was adjusted to 3.0±0.05 with orthophosphoric acid (Brand: Ourchem, Batch No. 4112K060). The solution was filtered through a 0.45 μm membrane and degassed. Mobile Phase B was prepared using methanol. The run time was 50 minutes.
The purity was analyzed by dissolving 10 mg of each sample to be examined in 25 mL of Mobile Phase A (0.4 mg/mL) as purity and related substance test solution. The sample was used and tested right after it was ready and was protected from light.

[3] = light 4500 Lux, under air, 0 days
[4] = light 4500 Lux, under air, 5 days
[5] = light 4500 Lux, under air, 7 days
[6] = light 4500 Lux, under air, 14 days
[7] = light 4500 Lux, under air, 30 days

Q: Which results are given for CNC[C@H](O)c1ccc(O)c(O)c1 [epinephrine bitartrate]?
A: Diffusion content (%) 120 min [1]: 67.8%; Appearance ([2]; 25° C./60% RH, 0 days): Off-white; Content (%) ([2]; 25° C./60% RH, 0 days): 100.00%; Related substance (%) ([2]; 25° C./60% RH, 0 days): 0.08%; Appearance ([2]; 25° C./60% RH, 5 days): Off-white; Content (%) ([2]; 25° C./60% RH, 5 days): 100.05%; Related substance (%) ([2]; 25° C./60% RH, 5 days): 0.08%; Appearance ([2]; 25° C./60% RH, 7 days): Off-white; Content (%) ([2]; 25° C./60% RH, 7 days): 100.83%; Related substance (%) ([2]; 25° C./60% RH, 7 days): 0.08%; Appearance ([2]; 25° C./60% RH, 14 days): Off-white; Content (%) ([2]; 25° C./60% RH, 14 days): 99.82%; Related substance (%) ([2]; 25° C./60% RH, 14 days): 0.09%; Appearance ([2]; 25° C./60% RH, 30 days): Off-white; Content (%) ([2]; 25° C./60% RH, 30 days): 100.33%; Related substance (%) ([2]; 25° C./60% RH, 30 days): 0.09%; Appearance ([2]; 40° C./75% RH, 0 days): Off-white; Content (%) ([2]; 40° C./75% RH, 0 days): 100.00%; Related substance (%) ([2]; 40° C./75% RH, 0 days): 0.08%; Appearance ([2]; 40° C./75% RH, 5 days): Off-white; Content (%) ([2]; 40° C./75% RH, 5 days): 100.43%; Related substance (%) ([2]; 40° C./75% RH, 5 days): 0.09%; Appearance ([2]; 40° C./75% RH, 7 days): Off-white; Content (%) ([2]; 40° C./75% RH, 7 days): 100.84%; Related substance (%) ([2]; 40° C./75% RH, 7 days): 0.09%; Appearance ([2]; 40° C./75% RH, 14 days): Off-white; Content (%) ([2]; 40° C./75% RH, 14 days): 100.17%; Related substance (%) ([2]; 40° C./75% RH, 14 days): 0.09%; Appearance ([2]; 40° C./75% RH, 30 days): Off-white; Content (%) ([2]; 40° C./75% RH, 30 days): 100.96%; Related substance (%) ([2]; 40° C./75% RH, 30 days): 0.10%; Appearance [2, 3]: Off-white; Content (%) [2, 3]: 100.00%; Related substance (%) [2, 3]: 0.08%; Appearance [2, 4]: Off-white; Content (%) [2, 4]: 99.71%; Related substance (%) [2, 4]: 0.10%; Appearance [2, 5]: Off-white; Content (%) [2, 5]: 102.34%; Related substance (%) [2, 5]: 0.10%; Appearance [2, 6]: Off-white; Content (%) [2, 6]: 100.43%; Related substance (%) [2, 6]: 0.09%; Appearance [2, 7]: Off-white; Content (%) [2, 7]: 100.39%; Related substance (%) [2, 7]: 0.09%
